Patent US9029391B2 (priority 2011, dated 2015)

System: HIV
Assay: MT4 Assay (anti-HIV activity)
Format: cell-based
Details: Human immunodeficiency virus 1, 96 h, read-out: HIV MT4 Assay IC50, HTLV-1 transformed cell line MT-4, cell titer glo, 10 point dose response curve
Method: Antiviral HIV activity and cytotoxicity values for compounds of the invention from Table 1 were measured in parallel in the HTLV-1 transformed cell line MT-4 based on the method previously described (Hazen et al., 2007, In vitro antiviral activity of the novel, tyrosyl-based human immunodeficiency virus (HIV) type 1 protease inhibitor brecanavir (GW640385) in combination with other antiretrovirals and against a panel of protease inhibitor-resistant HIV (Hazen et al., “In vitro antiviral activity of the novel, tyrosyl-based human immunodeficiency virus (HIV) type 1 protease inhibitor brecanavir (GW640385) in combination with other antiretrovirals and against a panel of protease inhibitor-resistant HIV”, Antimicrob. Agents Chemother. 2007, 51: 3147-3154; and Pauwels et al., “Sensitive and rapid assay on MT-4 cells for the detection of antiviral compounds against the AIDS virus”, J. of Virological Methods 1987, 16: 171-185).
Luciferase activity was measured 96 hours later by adding a cell titer glo (Promega, Madison, Wis.). Percent inhibition of cell protection data was plotted relative to no compound control. Under the same condition, cytotoxicity of the compounds was determined using cell titer glo (Promega, Madison, Wis.). IC50s were determined from a 10 point dose response curve using 3-4-fold serial dilution for each compound, which spans a concentration range >1000 fold.

Compound | IC50
COc1cc(-c2c(C(OC(C)(C)C)C(=O)O)n(C)c(=O)c3ccccc23)ccc1C (stereo not drawn) [Example 52, 2-(tert-butoxy)-2-[4-(3-methoxy-4-methylphenyl)-2-methyl-1-oxo-1,2-dihydroisoquinolin-3-yl]acetic acid] | 3120 nM
CCNC(=O)NCc1ccc2c(-c3ccc(C)c(C)c3)c(C(OC(C)(C)C)C(=O)O)n(C)c(=O)c2c1 (stereo not drawn) [Example 185, 2-(tert-butoxy)-2-(4-(3,4-dimethylphenyl)-7-((3-ethylureido)methyl)-2-methyl-1-oxo-1,2-dihydroisoquinolin-3-yl)acetic acid] | 37400 nM
COCc1ccc(-c2c(C(OC(C)(C)C)C(=O)O)n(C)c(=O)c3ccccc23)cc1 (stereo not drawn) [Example 49, 2-(tert-butoxy)-2-{4-[4-(methoxymethyl)phenyl]-2-methyl-1-oxo-1,2-dihydroisoquinolin-3-yl}acetic acid] | 15600 nM
COc1ccc2c(-c3ccc4c(c3C)CCCO4)c(C(OC(C)(C)C)C(=O)O)n(C)c(=O)c2c1F (stereo not drawn) [Example 126, 2-(tert-butoxy)-2-[8-fluoro-7-methoxy-2-methyl-4-(5-methyl-3,4-dihydro-2H-1-benzopyran-6-yl)-1-oxo-1,2-dihydroisoquinolin-3-yl]acetic acid] | 360 nM
Cn1c(C(OC(C)(C)C)C(=O)O)c(-c2cccc(F)c2)c2ccccc2c1=O (stereo not drawn) [Example 40, 2-(tert-butoxy)-2-[4-(3-fluorophenyl)-2-methyl-1-oxo-1,2-dihydroisoquinolin-3-yl]acetic acid] | 2180 nM
Cc1occc1-c1ccc2c(-c3cc(F)c4c(c3C)CCCO4)c([C@H](OC(C)(C)C)C(=O)O)n(C)c(=O)c2c1 (atropisomer, axis not shown; (M)) [Example 203, (2S)(M)-[(1,1-dimethylethyl)oxy][4-(8-fluoro-5-methyl-3,4-dihydro-2H-chromen-6-yl)-2-methyl-7-(2-methyl-3-furanyl)-1-oxo-1,2-dihydro-3-isoquinolinyl]ethanoic acid] | 30 nM
Cn1c(C(OC(C)(C)C)C(=O)O)c(-c2ccc(Cl)c(Cl)c2)c2ccccc2c1=O (stereo not drawn) [Example 11, 2-(tert-butoxy)-2-[4-(3,4-dichlorophenyl)-2-methyl-1-oxo-1,2-dihydroisoquinolin-3-yl]acetic acid] | 14800 nM
Cc1c(-c2c(C(OC(C)(C)C)C(=O)O)n(C)c(=O)c3ccccc23)cc(F)c2c1CCCO2 (stereo not drawn) [Example 150, [(1,1-dimethylethyl)oxy][4-(8-fluoro-5-methyl-3,4-dihydro-2H-chromen-6-yl)-2-methyl-1-oxo-1,2-dihydro-3-isoquinolinyl]acetic acid] | 160 nM
Cc1ccc(-c2c(C(OC(C)(C)C)C(=O)O)n(C)c(=O)c3cc(CN4CCOCC4)ccc23)cc1C (stereo not drawn) [Example 181] | 270 nM
COc1ccc2c(-c3ccc4c(c3C)CCCO4)c([C@H](OC(C)(C)C)C(=O)O)n(C)c(=O)c2c1 [Example 94, (2S)-2-(tert-butoxy)-2-[7-methoxy-2-methyl-4-(5-methyl-3,4-dihydro-2H-1-benzopyran-6-yl)-1-oxo-1,2-dihydroisoquinolin-3-yl]acetic acid] | 20 nM
Cc1c(-c2c(C(OC(C)(C)C)C(=O)O)n(C)c(=O)c3ccccc23)cc(Cl)c2c1CCCO2 (stereo not drawn) [Example 70, 2-(tert-butoxy)-2-[4-(8-chloro-5-methyl-3,4-dihydro-2H-1-benzopyran-6-yl)-2-methyl-1-oxo-1,2-dihydroisoquinolin-3-yl]acetic acid] | 1230 nM
Cc1c(-c2c([C@H](OC(C)(C)C)C(=O)NS(C)(=O)=O)n(C)c(=O)c3ccccc23)cc(F)c2c1CCCO2 (atropisomer, axis not shown; (M)) [Example 215, (2S)(M)-2-[(1,1-dimethylethyl)oxy]-2-[4-(8-fluoro-5-methyl-3,4-dihydro-2H-chromen-6-yl)-2-methyl-1-oxo-1,2-dihydro-3-isoquinolinyl]-N-(methylsulfonyl)ethanamide] | 11100 nM
Cc1c(-c2c([C@H](OC(C)(C)C)C(=O)O)n(C)c(=O)c3cc(-c4cccnc4)ccc23)cc(F)c2c1CCCO2 (atropisomer, axis not shown; (M)) [Example 206, (2S)(M)-[(1,1-dimethylethyl)oxy][4-(8-fluoro-5-methyl-3,4-dihydro-2H-chromen-6-yl)-2-methyl-1-oxo-7-(3-pyridinyl)-1,2-dihydro-3-isoquinolinyl]ethanoic acid] | 160 nM
Cc1c(-c2c(C(OC(C)(C)C)C(=O)O)n(C)c(=O)c3cc(OCc4c(F)cccc4F)ccc23)ccc2c1CCCO2 (stereo not drawn) [Example 98, 2-(tert-butoxy)-2-{7-[(2,6-difluorophenyl)methoxy]-2-methyl-4-(5-methyl-3,4-dihydro-2H-1-benzopyran-6-yl)-1-oxo-1,2-dihydroisoquinolin-3-yl}acetic acid] | 90 nM
Cc1c(-c2c(C(OC(C)(C)C)C(=O)O)n(C)c(=O)c3cc(OCc4ccc(F)cn4)ccc23)cc(F)c2c1CCCO2 (stereo not drawn) [Example 101, 2-(tert-butoxy)-2-[4-(8-fluoro-5-methyl-3,4-dihydro-2H-1-benzopyran-6-yl)-7-[(5-fluoropyridin-2-yl)methoxy]-2-methyl-1-oxo-1,2-dihydroisoquinolin-3-yl]acetic acid] | 290 nM
Cn1c(C(OC(C)(C)C)C(=O)O)c(-c2cc(Cl)cc(Cl)c2)c2ccccc2c1=O (stereo not drawn) [Example 12, 2-(tert-butoxy)-2-[4-(3,5-dichlorophenyl)-2-methyl-1-oxo-1,2-dihydroisoquinolin-3-yl]acetic acid] | 36700 nM
COc1ccccc1-c1c(C(OC(C)(C)C)C(=O)O)n(C)c(=O)c2ccccc12 (stereo not drawn) [Example 33, 2-(tert-butoxy)-2-[4-(2-methoxyphenyl)-2-methyl-1-oxo-1,2-dihydroisoquinolin-3-yl]acetic acid] | 21700 nM
Cc1c(-c2c([C@H](OC(C)(C)C)C(=O)O)n(C)c(=O)c3cc(OCc4ccc(F)cc4F)ccc23)ccc2c1CCCO2 [Example 148, (2S)-2-(tert-butoxy)-2-{7-[(2,4-difluorophenyl)methoxy]-2-methyl-4-(5-methyl-3,4-dihydro-2H-1-benzopyran-6-yl)-1-oxo-1,2-dihydroisoquinolin-3-yl}acetic acid] | 50 nM
Cc1nc(COc2ccc3c(-c4cc(F)c5c(c4C)CCCO5)c([C@H](OC(C)(C)C)C(=O)O)n(C)c(=O)c3c2)c(C)o1 [Example 105, (2S)-2-(tert-butoxy)-2-{7-[(dimethyl-1,3-oxazol-4-yl)methoxy]-4-(8-fluoro-5-methyl-3,4-dihydro-2H-1-benzopyran-6-yl)-2-methyl-1-oxo-1,2-dihydroisoquinolin-3-yl}acetic acid] | 100 nM
Cn1c(C(OC(C)(C)C)C(=O)O)c(-c2ccc(Cl)cc2)c2ccccc2c1=O (stereo not drawn) [Example 154, [4-(4-chlorophenyl)-2-methyl-1-oxo-1,2-dihydro-3-isoquinolinyl][(1,1-dimethylethyl)oxy]acetic acid] | 2090 nM
Cc1cc2c(cc1-c1c(C(OC(C)(C)C)C(=O)O)n(C)c(=O)c3ccccc13)CCCO2 (stereo not drawn) [Example 20, 2-(tert-butoxy)-2-[2-methyl-4-(7-methyl-3,4-dihydro-2H-1-benzopyran-6-yl)-1-oxo-1,2-dihydroisoquinolin-3-yl]acetic acid] | 3790 nM
Cc1c(-c2c([C@H](OC(C)(C)C)C(=O)O)n(C)c(=O)c3cc(-c4ccnn4C)ccc23)cc(F)c2c1CCCO2 (atropisomer, axis not shown; (M)) [Example 195, (2S)(M)-[(1,1-dimethylethyl)oxy][4-(8-fluoro-5-methyl-3,4-dihydro-2H-chromen-6-yl)-2-methyl-7-(1-methyl-1H-pyrazol-5-yl)-1-oxo-1,2-dihydro-3-isoquinolinyl]ethanoic acid] | 140 nM
Cc1nc(COc2ccc3c(-c4cc(F)c5c(c4C)CCCO5)c(C(OC(C)(C)C)C(=O)O)n(C)c(=O)c3c2)c(C)o1 (stereo not drawn) [Example 133, 2-(tert-butoxy)-2-{7-[(dimethyl-1,3-oxazol-4-yl)methoxy]-4-(8-fluoro-5-methyl-3,4-dihydro-2H-1-benzopyran-6-yl)-2-methyl-1-oxo-1,2-dihydroisoquinolin-3-yl}acetic acid] | 930 nM
Cn1c(C(OC(C)(C)C)C(=O)O)c(-c2ccc3c(c2)OCO3)c2ccccc2c1=O (stereo not drawn) [Example 51, 2-[4-(2H-1,3-benzodioxol-5-yl)-2-methyl-1-oxo-1,2-dihydroisoquinolin-3-yl]-2-(tert-butoxy)acetic acid] | 5300 nM
Cc1c(-c2c([C@H](OC(C)(C)C)C(=O)NO)n(C)c(=O)c3ccccc23)cc(F)c2c1CCCO2 (atropisomer, axis not shown; (M)) [Example 213, (S)(M)-2-(tert-butoxy)-2-(4-(8-fluoro-5-methylchroman-6-yl)-2-methyl-1-oxo-1,2-dihydroisoquinolin-3-yl)-N-hydroxyacetamide] | 5250 nM
Cn1c(C(OC(C)(C)C)C(=O)O)c(-c2cc(Cl)ccc2Cl)c2ccccc2c1=O (stereo not drawn) [Example 14, 2-(tert-butoxy)-2-[4-(2,5-dichlorophenyl)-2-methyl-1-oxo-1,2-dihydroisoquinolin-3-yl]acetic acid] | 2570 nM
CC(=O)N1CCc2ccc(-c3c(C(OC(C)(C)C)C(=O)O)n(C)c(=O)c4ccccc34)cc2C1 (stereo not drawn) [Example 80, 2-[4-(2-acetyl-1,2,3,4-tetrahydroisoquinolin-7-yl)-2-methyl-1-oxo-1,2-dihydroisoquinolin-3-yl]-2-(tert-butoxy)acetic acid] | 50000 nM
